Measurements published in publication PMC2858655, “Structural and Functional Characterization of Human Peripheral Nervous System Myelin Protein P2” (PLoS ONE, 2010).

Experiments:
[1] = target: T1, human myelin P2 protein (untagged) (Homo sapiens, UniProt P02689); experiment: X-ray crystallography, […] Å; type: binding; details: fatty acid carried over from E. coli, identity modelled from electron density; inside barrel cavity; pH 8.5
T1 construct: gene PMP2

[2] = target: T2, His-tagged P2 protein (His-P2) (Homo sapiens, UniProt P02689); experiment: intrinsic Trp fluorescence quenching; type: binding; details: 9.4 µM protein, 10 µM cholesterol, 1% ethanol, HEPES, 150 mM NaCl, pH 7.5, 120 min, room temperature, excitation 280 nm
T2 construct: gene PMP2; full length, N-terminal His6 tag with TEV site kept (pTH27), E. coli Rosetta(DE3)

decrease of fluorescence intensity [2]	Structure (SMILES)	X-ray crystallography, 1.85 Å [1]
–	CCCCCCCCCCCCCCCC(=O)O [palmitate]	a palmitate molecule, well-defined in the electron density (Figure 2B,4A), was modeled into the lipid-binding cavity
~ 25%	CC(C)CCC[C@@H](C)[C@H]1CC[C@H]2[C@@H]3CC=C4C[C@@H](O)CC[C@]4(C)[C@H]3CC[C@]12C [cholesterol]	–
